Reference: patent US12209096B2, “Compounds and compositions for inducing chondrogenesis” (NOVARTIS AG, priority 2017, dated 2025)

Columns and labels:
C3H10T1/2 cell line = test: alkaline phosphatase assay in C3H10T1/2; assay type: cell-based; settings: Mus musculus, C3H 10T1/2, 144 h, alkaline phosphatase assay in C3H10T1/2, 6 days; for Emax: read-out: (D) % Efficacy; for IC50: read-out: (D) IC50
Protocol: To initiate differentiation in C3H10T1/2, Clone 8 (ATCC cat #CCL-226), 4,000 cells were plated/well in 384 Perkin Elmer CellCarrier Ultra plate in DMEM/High glucose (HyClone cat #SH30022.01) containing 10% FBS and 1× Antibiotic/Antimycotic (HyClone cat #SV30079.01). After 24 hours the test compound was then added to each well at the indicated dose. The cultures were grown at 37° C. for 6 days.
To detect the presence of hypertrophic cells, C3H10T1/2 were fixed with 4% paraformaldehyde and Hoeschst dye for 20 minutes, rinsed in PBS, then stained with Fast Blue RR Salt with Naphthol AS-MX Phosphate Alkaline Solution.
The ALP staining was imaged by fluoresecent microscopy, using the 561 wavelength, and/or quantified by high content imagining with the ImageXpress Micro Confocal (Molecular Devices, Sunnyvale, CA). Data analyses were performed with the customized multiwavelength cell-scoring application looking at the number of ALP positive cells per well.

NHACs = test: calcium flux assay; assay type: cell-based, human; settings: Homo sapiens; for Emax: read-out: (A) % Efficacy
Procedure, shortened: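 FLIPR fluorescence (ex 470–495 nm, em 515–575 nm) was read before and after compound dispense at the indicated dose. Chondrocytes (NHACs), 2000 cells/well, had been dye-loaded 24 h after plating with Calcium 5 in HBSS/HEPES plus 5 mM probenecid, 1 h, room temperature.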

Row | Structure (SMILES) | IC50 (C3H10T1/2 cell line) | EC50 (NHACs) | Emax (C3H10T1/2 cell line) | Emax (NHACs)
1 | Cc1cc([C@H]2[C@H]3O[C@H](C[C@H]3NCCO)[C@@H]2C(=O)Nc2ccc(Cl)c(Cl)c2)ccn1 [Example 168, (1R,2R,3S,4R,5R)—N-(3,4-dichlorophenyl)-5-((2-hydroxyethyl)amino)-3-(2-methylpyridin-4-yl)-7-oxabicyclo[2.2.1]heptane-2-carboxamide] | > 20 µM | 0.32 µM | 0% | 114%
2 | COc1cc([C@H]2[C@H]3O[C@H](C[C@@H]3F)[C@@H]2C(=O)Nc2ccc(Cl)c(Cl)c2)ccn1 [Example 103, (1R,2R,3S,4R,5S)—N-(3,4-dichlorophenyl)-5-fluoro-3-(2-methoxypyridin-4-yl)-7-oxabicyclo[2.2.1]heptane-2-carboxamide] | 10 µM | 24 µM | 79% | 153%
3 | Cc1cc([C@@H]2[C@@H]3O[C@@H](C[C@@H]3O)[C@H]2C(=O)Nc2ccc(Cl)c(Cl)c2)ccn1 [Example 181, (1S,2S,3R,4S,5S)—N-(3,4-dichlorophenyl)-5-hydroxy-3-(2-methylpyridin-4-yl)-7-oxabicyclo[2.2.1]heptane-2-carboxamide] | > 20 µM | 27 µM | 28% | 243%
4 | COc1ccc(NC(=O)[C@H]2[C@@H]3O[C@@H]([C@H]4C[C@H]43)[C@@H]2c2cccc(C(F)(F)F)n2)cn1 [Example 128, (1S,2S,4R,5R,6R,7S)—N-(6-methoxypyridin-3-yl)-7-(6-(trifluoromethyl)pyridin-2-yl)-8-oxatricyclo[3.2.1.0^2,4]octane-6-carboxamide] | > 20 µM | > 50 µM | 39% | 27%
5 | Cc1cc([C@@H]2[C@@H]3O[C@@H](C[C@H]3O)[C@H]2C(=O)Nc2cnc(Cl)c(Cl)c2)ccn1 [Example 84, (1S,2S,3R,4S,5R)-N-(5,6-dichloropyridin-3-yl)-5-hydroxy-3-(2-methylpyridin-4-yl)-7-oxabicyclo[2.2.1]heptane-2-carboxamide] | > 20 µM | > 50 µM | 31% | 61%
6 | Cc1ccc([C@H]2[C@H]3O[C@H](C[C@@H]3O)[C@@H]2C(=O)Nc2ccc(Cl)c(Cl)c2)cn1 [Example 138, (1R,2R,3S,4R,5S)—N-(3,4-dichlorophenyl)-5-hydroxy-3-(6-methylpyridin-3-yl)-7-oxabicyclo[2.2.1]heptane-2-carboxamide] | > 20 µM | > 50 µM | 24% | 0%
7 | O=C(Nc1ccc(Cl)c(Cl)c1)[C@H]1[C@@H]2O[C@@H]([C@H]3C[C@H]32)[C@@H]1c1cccc(C(F)(F)F)n1 [Example 120, (1S,2S,4R,5R,6R,7S)—N-(3,4-dichlorophenyl)-7-(6-(trifluoromethyl)pyridin-2-yl)-8-oxatricyclo[3.2.1.0^2,4]octane-6-carboxamide] | 4.4 µM | 20 µM | 119% | 102%
8 | O=C(Nc1ccc(Cl)c(Cl)c1)[C@@H]1[C@@H](c2cnc(C(F)(F)F)nc2)[C@H]2O[C@@H]1C[C@@H]2O [Example 154, (1R,2R,3S,4R,5S)—N-(3,4-dichlorophenyl)-5-hydroxy-3-(2-(trifluoromethyl)pyrimidin-5-yl)-7-oxabicyclo[2.2.1]heptane-2-carboxamide] | 4 µM | 26 µM | 75% | 236%
9 | Cn1cc([C@H]2[C@H]3O[C@H](C[C@@H]3O)[C@@H]2C(=O)Nc2ccc(Cl)c(Cl)c2)cn1 [Example 152, (1R,2R,3S,4R,5S)—N-(3,4-dichlorophenyl)-5-hydroxy-3-(1-methyl-1H-pyrazol-4-yl)-7-oxabicyclo[2.2.1]heptane-2-carboxamide] | 2 µM | 12 µM | 61% | 44%
10 | Cc1cc([C@H]2[C@H]3O[C@H](C[C@@H]3O)[C@@H]2C(=O)NC2CCN(S(C)(=O)=O)CC2)ccn1 [Example 79, (1R,2R,3S,4R,5S)-5-hydroxy-3-(2-methylpyridin-4-yl)-N-(1-(methylsulfonyl)piperidin-4-yl)-7-oxabicyclo[2.2.1]heptane-2-carboxamide] | > 20 µM | > 50 µM | 34% | 113%
11 | COc1ccc(NC(=O)[C@H]2[C@@H]3O[C@@H]([C@H]4C[C@H]43)[C@@H]2c2ccc(C)nc2)cn1 [Example 123, (1S,2S,4R,5R,6R,7S)—N-(6-methoxypyridin-3-yl)-7-(6-methylpyridin-3-yl)-8-oxatricyclo[3.2.1.0^2,4]octane-6-carboxamide] | > 20 µM | > 50 µM | 48% | 0%
12 | O=C(Nc1cnc(Cl)c(Cl)c1)[C@H]1[C@@H]2O[C@@H]([C@H]3C[C@H]32)[C@@H]1c1cncnc1 [Example 75, (1S,2S,4R,5R,6R,7S)—N-(5,6-dichloropyridin-3-yl)-7-(pyrimidin-5-yl)-8-oxatricyclo[3.2.1.0^2,4]octane-6-carboxamide] | > 20 µM | 4.4 µM | 45% | 73%
13 | Cc1ccc([C@H]2[C@H]3O[C@H]([C@@H]4C[C@@H]43)[C@@H]2C(=O)Nc2cnc(Cl)c(Cl)c2)cn1 [Example 74, (1S,2S,4R,5R,6R,7S)—N-(5,6-dichloropyridin-3-yl)-7-(6-methylpyridin-3-yl)-8-oxatricyclo[3.2.1.0^2,4]octane-6-carboxamide] | > 20 µM | 7.7 µM | 83% | 90%
14 | Cc1cc([C@H]2[C@H]3O[C@H](C[C@@H]3F)[C@@H]2C(=O)Nc2ccc(Cl)c(Cl)c2)ccn1 [Example 105, (1R,2R,3S,4R,5S)—N-(3,4-dichlorophenyl)-5-fluoro-3-(2-methylpyridin-4-yl)-7-oxabicyclo[2.2.1]heptane-2-carboxamide] | 1.7 µM | 8.2 µM | 68% | 106%
15 | Nc1cc([C@H]2[C@H]3O[C@H](C[C@@H]3O)[C@@H]2C(=O)Nc2ccc(Cl)c(Cl)c2)ccn1 [Example 149, (1R,2R,3S,4R,5S)-3-(2-aminopyridin-4-yl)-N-(3,4-dichlorophenyl)-5-hydroxy-7-oxabicyclo[2.2.1]heptane-2-carboxamide] | 8.3 µM | 26 µM | 58% | 112%
16 | Cc1ncc([C@H]2[C@H]3O[C@H](C[C@@H]3O)[C@@H]2C(=O)Nc2ccc(Cl)c(Cl)c2)cn1 [Example 148, (1R,2R,3S,4R,5S)—N-(3,4-dichlorophenyl)-5-hydroxy-3-(2-methylpyrimidin-5-yl)-7-oxabicyclo[2.2.1]heptane-2-carboxamide] | 18 µM | 7.8 µM | 58% | 51%

Second part, led by results:

Row | IC50 (C3H10T1/2 cell line) | EC50 (NHACs) | Structure (SMILES) | Emax (C3H10T1/2 cell line) | Emax (NHACs)
17 | > 20 µM | > 50 µM | O=C(Nc1cnc(Cl)c(Cl)c1)[C@H]1[C@H](c2ccnc(F)c2)[C@@H]2O[C@H]1C[C@H]2O (single isomer, unassigned) [Example 90b] | 45% | 44%
18 | > 20 µM | > 50 µM | O=C(Nc1ccc(Cl)c(Cl)c1)[C@@H]1[C@H](c2ccnc(C(F)(F)F)c2)[C@@H]2O[C@H]1C[C@H]2O (single isomer, unassigned) [Example 54b] | 46% | 16%
19 | 4.5 µM | 2.7 µM | Cc1cc([C@H]2[C@H]3O[C@H]([C@@H]4C[C@@H]43)[C@@H]2C(=O)Nc2cccc(C(F)(F)F)c2)ccn1 (single isomer, unassigned) [Example 121a] | 80% | 231%
20 | > 20 µM | 33 µM | Cc1cc([C@H]2[C@H](C(=O)Nc3ccc(Cl)c(Cl)c3)[C@H]3O[C@@H]2C[C@@H]3O)ccn1 [Example 77d, (1R,2S,3R,4R,6S)-N-(3,4-dichlorophenyl)-6-hydroxy-3-(2-methylpyridin-4-yl)-7-oxabicyclo[2.2.1]heptane-2-carboxamide] | 54% | 92%
21 | 3.9 µM | 13 µM | Cc1cc([C@@H]2[C@@H]3O[C@@H](C[C@H]3O)[C@H]2C(=O)Nc2ccc(Cl)c(Cl)c2)ccn1 [Example 77c, (1S,2S,3R,4S,5R)-N-(3,4-dichlorophenyl)-5-hydroxy-3-(2-methylpyridin-4-yl)-7-oxabicyclo[2.2.1]heptane-2-carboxamide] | 72% | 72%
22 | 1.8 µM | 25 µM | COc1cc([C@H]2[C@H]3O[C@H](C[C@@H]3O)[C@@H]2C(=O)Nc2ccc(Cl)c(Cl)c2)ccn1 (single isomer, unassigned) [Example 139a] | 54% | 275%
23 | > 20 µM | 20 µM | Cc1cc([C@@H]2[C@@H](C(=O)Nc3ccc(Cl)c(Cl)c3)[C@@H]3O[C@H]2C[C@H]3O)ccn1 (single isomer, unassigned) [Example 77b] | 47% | 157%
24 | 7.7 µM | 26 µM | COc1cc([C@@H]2[C@@H]3O[C@@H](C[C@H]3O)[C@H]2C(=O)Nc2ccc(Cl)c(Cl)c2)ccn1 (single isomer, unassigned) [Example 139b] | 82% | 141%
